From article PMC8153216 (Chemical Science, 2021)

Tested on: Coxsackievirus B3 (CVB3)
Assay: Anti Coxsackie B3 activity assay
Type: cell-based, Coxsackie viruse B3 (Nancy strain)
Conditions: CVB3 in Vero cells

| Structure (SMILES) | SI (TC50/IC50) |
| --- | --- |
| Cc1cc(CCCOc2c(C)cc(-c3noc(C(F)(F)F)n3)cc2C)on1 [Pleconaril] | 14045.1 |
| NC(=O)c1ncn([C@@H]2O[C@H](CO)[C@@H](O)[C@H]2O)n1 [Ribavirin] | 5.2 |
